Strand notation (5' to 3'): a small letter for the sugar, then the base; units joined by * are phosphorothioate-linked, units joined directly phosphodiester-linked; [ ] holds rarer units or linkages, { } end groups; capitals alone tell only the bases. k = constrained ethyl (cEt); [5mC] = 5-methylcytosine; d = 2'-deoxy (DNA)

The data set has as its system human SMAD7 mRNA. Description: Antisense inhibition of human SMAD7 mRNA expression in Hep3B cells by 3-10-3 cEt gapmers, 10,000 nM, electroporation (Example 2). The conditions noted are these: approximately 24 hours. It is filed as cell-based. The essentials: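 Hep3B, 20,000 cells/well; electroporation, 10,000 nM ASO; ~24 h. Readout: SMAD7 mRNA by qRT-PCR (RTS5062), RIBOGREEN-normalised; % inhibition vs untreated.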

[1] abbreviates: Hep3B cells, electroporation with 10,000 nM antisense oligonucleotide, SMAD7 mRNA by RT-PCR (RTS5062), relative to untreated control cells.
The mark [2] stands for this setting: SMAD7 mRNA, Hep3B cells, electroporation with 10,000 nM antisense oligonucleotide, primer probe set RTS5062, relative to untreated control cells.
Where [3] appears, read: Hep3B cells, electroporation with 10,000 nM antisense oligonucleotide, primer probe set RTS5062, relative to untreated control cells.
Where [4] appears, read: Hep3B cells, electroporation with 10,000 nM antisense oligonucleotide, RTS5062, percent inhibition of SMAD7 mRNA relative to untreated control cells.
The mark [5] stands for this setting: Hep3B cells, electroporation, 10,000 nM antisense oligonucleotide, RTS5062, relative to untreated control cells.

“790497 (kG*kT*kT*d[5mC]*dG*d[5mC]*dA*dG*dA*dG*dT*d[5mC]*dG*kG*k[5mC]*kT; antisense) [compound 790497]”: the “% Inhibition” value under setting [1] came out at 23%.

With “829857 (antisense kT*kG*k[5mC]*dA*d[5mC]*d[5mC]*dA*dG*d[5mC]*dT*dG*dA*d[5mC]*kT*k[5mC]*kT) [compound 829857]”, under setting [2], the “% Inhibition” value is given as 31%.

As for “829991 (kA*kG*kG*dG*d[5mC]*d[5mC]*dG*d[5mC]*dG*dA*dG*dG*d[5mC]*kG*kG*kT; antisense) [compound 829991]”, the “% Inhibition” value under setting [2] is 26%.

With “799195 (antisense k[5mC]*kA*kA*dT*dG*d[5mC]*dT*dA*dA*dA*dT*dT*dT*k[5mC]*k[5mC]*kA) [compound 799195]”, under setting [3], the “% Inhibition” value turned out to be 43%.

As for “799862 (k[5mC]*k[5mC]*k[5mC]*dA*d[5mC]*d[5mC]*dG*d[5mC]*dA*dT*dG*d[5mC]*dG*kA*kT*k[5mC]; antisense) [compound 799862]”, under setting [1], the “% Inhibition” value amounted to 14%.

With “798972 (antisense kT*kA*kT*d[5mC]*dA*dG*dG*dG*dT*dG*dT*d[5mC]*d[5mC]*kT*kG*k[5mC]) [compound 798972]”, under setting [3], the “% inhibition of SMAD7 mRNA expression” value came out at 18%.

In the case of “799481 (antisense k[5mC]*kT*k[5mC]*d[5mC]*dA*d[5mC]*dA*d[5mC]*dA*dG*dG*d[5mC]*dA*kA*k[5mC]*k[5mC]) [compound 799481]”, the “% inhibition of SMAD7 mRNA expression” value under setting [3] was found to be 34%.

Turning to “799368 (antisense k[5mC]*kT*kA*dA*dG*dT*d[5mC]*dT*d[5mC]*d[5mC]*dG*dA*dG*kT*kT*kA) [compound 799368]”, the “% Inhibition” value under setting [1] is 68%.

Take “799768 (k[5mC]*kA*k[5mC]*d[5mC]*dA*dA*d[5mC]*d[5mC]*dT*d[5mC]*dT*dG*dT*kG*kG*kG; antisense) [compound 799768]”: the “% Inhibition” value under setting [4] is 0%.

Regarding “799444 (antisense k[5mC]*kA*kT*d[5mC]*dA*dT*dG*d[5mC]*dT*dG*dA*dT*dT*kT*kT*kA) [compound 799444]”, the “% inhibition of SMAD7 mRNA expression” value under setting [3] is recorded as 45%.

“772709 (kT*kA*kA*dA*dG*d[5mC]*dA*dA*dA*dG*dT*dG*d[5mC]*kA*kT*k[5mC]; antisense) [compound 772709]”: the “% inhibition of SMAD7 mRNA expression” value under setting [3] amounted to 0%.

In the case of “830147 (antisense kG*kA*k[5mC]*dT*dG*dG*dT*d[5mC]*dT*dT*d[5mC]*dA*d[5mC]*k[5mC]*kA*kG) [compound 830147]”, the “% Inhibition” value under setting [1] is 0%.

“798708 (antisense k[5mC]*kG*k[5mC]*dT*d[5mC]*dG*dG*d[5mC]*dT*dG*dT*d[5mC]*d[5mC]*kG*kT*k[5mC]) [compound 798708]”: under setting [3], the “% inhibition of SMAD7 mRNA expression” value worked out at 45%.

Consider “799591 (kA*kT*kT*dA*dG*dT*dA*dA*dA*dT*d[5mC]*dA*dA*kG*kA*kG; antisense) [compound 799591]”, for which, under setting [4], the “% Inhibition” value was determined as 56%.

As to “799503 (antisense kG*kG*k[5mC]*d[5mC]*dA*d[5mC]*d[5mC]*dA*dG*dG*dA*d[5mC]*dA*kA*kT*kG) [compound 799503]”, under setting [5], the “% inhibition of SMAD7 mRNA expression” value came out at 0%.

As to “799075 (antisense kA*kG*kA*dT*dG*dG*d[5mC]*d[5mC]*dA*dA*dA*dA*dA*kA*kG*kA) [compound 799075]”, the “% Inhibition” value under setting [3] was 0%.

On to “799866 (k[5mC]*kA*k[5mC]*d[5mC]*dG*d[5mC]*dG*d[5mC]*dA*dG*dG*dG*dA*k[5mC]*kA*kG; antisense) [compound 799866]”, for which the “% Inhibition” value under setting [1] was 0%.

Consider “790696 (k[5mC]*kA*kA*dA*dG*dG*dT*dA*dA*dG*d[5mC]*d[5mC]*dA*kG*k[5mC]*kT; antisense) [compound 790696]”, for which the “% Inhibition” value (SMAD7 mRNA, Hep3B cells, 10,000 nM antisense oligonucleotide, electroporation, primer probe set RTS5062, relative to untreated control cells) came to 41%.

On to “799061 (antisense kT*kT*k[5mC]*dG*dG*d[5mC]*d[5mC]*dA*d[5mC]*dT*dA*dG*d[5mC]*kA*kG*kG) [compound 799061]”, for which the “% Inhibition” value under setting [3] amounted to 45%.

Take “799307 (antisense kT*k[5mC]*kT*dA*dA*dA*d[5mC]*dA*dG*d[5mC]*dA*dT*dG*kA*kA*kA) [compound 799307]”: the “% inhibition of SMAD7 mRNA expression” value under setting [5] is 10%.

(Values after patent US10517889B2, “Modulators of SMAD7 expression” (Ionis Pharmaceuticals, Inc., priority 2017, dated 2019).)
